# US10434092B2, “Dosage regimen for an alpha-isoform selective phosphatidylinositol 3-kinase inhibitor” (Novartis AG, priority 2013, dated 2019)
# Where “and” joins values, the source holds several entries; their conditions need not be identical. Equal values may be shown once.
# Tests used:
# S473P-Akt [1] = test: In vivo S473P-Akt inhibition in Rat1-myr-p110α tumors (RPPA) versus tumor drug concentration; parameters: species or system nude mice and rats
# Description: (§1) Rat1-Myr-p110α tumors were established by subcutaneous injection of […] in 100 μL HBSS (Sigma #H8264) into the right flank of nude mice or nude rats. For the efficacy experiments, treatments were initiated when the mean tumor volumes were approx. 300 mm^3 (14 to 15 days post tumor cells injection).
# (§2) Blood samples were collected at different time points post the last treatment (1 hour, 2 hour, 4 hour, 8 hour, 12 hour, 16 hour and 24 hour, n=2-3 per time point) into tubes coated with K-EDTA. Blood samples were centrifuged and collected plasma immediately frozen at −80° C. until final processing. Tumors were collected at sacrifice at 7 time points (1 hour, 2 hour, 4 hour, 8 hour, 12 hour, 16 hour and 24 hour, n=2-3 per time point), snap frozen and kept at −80° C. until final processing.
# After dissection, the tumors were snap-frozen in liquid nitrogen and stored at −80° C. Frozen tumors were pulverized using a Retsch ball mixer mill MM20 (Arlesheim, Switzerland) with metal cylinders that were pre-cooled to −80° C. in a freezer. Powder was scrapped from metal cylinders on dry ice and transferred into pre-cooled 1.5 mL Eppendorf tubes while avoiding melting.
# (§3) Following addition of 25 μL of internal standard (1 μg/mL) to analytical aliquots (25 μL) of plasma or (20 mg) tumor powder, the proteins were precipitated by the addition of 200 μL acetonitrile. The supernatant were transferred in a fresh vial. After evaporation to dryness the samples were re-dissolved in 60 μL acetonitrile/water (1/1 v/v). An aliquot (5 μL) of this solution was separated on a ACQUITY UPLC BEH C18 column (Waters™ 1.7 μm particle size, 2.1×50 mm) with a mobile phase consisting of a mixture of 0.1% formic acid in water (solvent A) and 0.1% formic acid in acetonitrile (solvent B). Gradient programming was used with a flow rate of 600 μL/min. After equilibration with 95% solvent A, 5 μL of sample was injected. Following a latency period of 0.25 min, the sample was eluted with a linear gradient of 5-100% solvent B over a period of 0.65 minutes followed by a 0.35 minutes hold. The column was prepared for the next sample by re-equilibrating over 0.25 minutes to the starting conditions. […]
# Each sample was vortexed and centrifuged for 10 minutes at 10,000 rpm. […] The protein concentrations were quantified using the Coomassie Plus Kit (#23236 Thermo Scientific, Rockford, Ill., USA) according to the protocol of the manufacturer. The diluted samples were transferred into a 96 well plate (#269620, NUNC) and the absorbance was measured at 595 nm using a SpectraMAX Plus plate reader from Molecular Devices. The Protein amount was calculated using the Softmax Pro 5.0 software (Molecular Devices, USA) and then normalized on 1 mg/mL using the corresponding lysis buffer. […]
# [2] = Pharmacokinetics after oral administration, nude rats; type: in vivo; conditions: nude rats, 12.5, 25, 40 and 80 mg/kg qd
# Description: as §2
# as §3, with “hold.” for “hold. The column was prepared for the next sample by re-equilibrating over 0.25 minutes to the starting conditions.”
# [3] = Modulation of glucose and insulin levels, nude mice; type: in vivo; conditions: versus plasma drug concentration
# Rat1-myr P110a tumors = test: PK/PD/efficacy relationship (time over in vivo IC80 versus anti-tumor efficacy); parameters: species or system mice and rats
# Excerpt: Phoenix WinNonlin 6.3 (Pharsight) was used to simulate the mean plasma concentration time profiles after multiple dosing using the non-compartmental nonparametric superposition approach of data generated either from a mouse or rat efficacy study. The predictions are based upon an accumulation ratio computed from the terminal slope (Lambda Z), allowing predictions from simple or complicated dosing schedules.
# FIG. 6 provides the relationship between exposure (as measured by time over the in vivo IC80) and anti-tumor efficacy. Further, a nearly linear relationship is identified between the anti-tumor efficacy magnitude and duration of drug exposure (as measured by time over the in vivo IC80) over the IC80 (R^2=0.89; FIG. 7).
# [4] = Modulation of glucose and insulin levels, nude rats; type: in vivo; conditions: versus plasma drug concentration
# mTOR = mTOR (Homo sapiens, UniProt P42345); conditions: cited from earlier work
# [5] = once or twice per day continuous daily schedule, oral; cited from earlier work
# DNA-PK = DNA-PK (Homo sapiens, UniProt P78527); conditions: cited from earlier work
# [6] = Pharmacokinetics after oral administration, nude mice; type: in vivo; conditions: nude mice, 12.5, 25 and 50 mg/kg qd
# Description: as §2
# as §3, with “hold.” for “hold. The column was prepared for the next sample by re-equilibrating over 0.25 minutes to the starting conditions.”
# ATR = ATR (Homo sapiens, UniProt Q13535); conditions: cited from earlier work
# Sequence of ATR (Q13535 whole entry): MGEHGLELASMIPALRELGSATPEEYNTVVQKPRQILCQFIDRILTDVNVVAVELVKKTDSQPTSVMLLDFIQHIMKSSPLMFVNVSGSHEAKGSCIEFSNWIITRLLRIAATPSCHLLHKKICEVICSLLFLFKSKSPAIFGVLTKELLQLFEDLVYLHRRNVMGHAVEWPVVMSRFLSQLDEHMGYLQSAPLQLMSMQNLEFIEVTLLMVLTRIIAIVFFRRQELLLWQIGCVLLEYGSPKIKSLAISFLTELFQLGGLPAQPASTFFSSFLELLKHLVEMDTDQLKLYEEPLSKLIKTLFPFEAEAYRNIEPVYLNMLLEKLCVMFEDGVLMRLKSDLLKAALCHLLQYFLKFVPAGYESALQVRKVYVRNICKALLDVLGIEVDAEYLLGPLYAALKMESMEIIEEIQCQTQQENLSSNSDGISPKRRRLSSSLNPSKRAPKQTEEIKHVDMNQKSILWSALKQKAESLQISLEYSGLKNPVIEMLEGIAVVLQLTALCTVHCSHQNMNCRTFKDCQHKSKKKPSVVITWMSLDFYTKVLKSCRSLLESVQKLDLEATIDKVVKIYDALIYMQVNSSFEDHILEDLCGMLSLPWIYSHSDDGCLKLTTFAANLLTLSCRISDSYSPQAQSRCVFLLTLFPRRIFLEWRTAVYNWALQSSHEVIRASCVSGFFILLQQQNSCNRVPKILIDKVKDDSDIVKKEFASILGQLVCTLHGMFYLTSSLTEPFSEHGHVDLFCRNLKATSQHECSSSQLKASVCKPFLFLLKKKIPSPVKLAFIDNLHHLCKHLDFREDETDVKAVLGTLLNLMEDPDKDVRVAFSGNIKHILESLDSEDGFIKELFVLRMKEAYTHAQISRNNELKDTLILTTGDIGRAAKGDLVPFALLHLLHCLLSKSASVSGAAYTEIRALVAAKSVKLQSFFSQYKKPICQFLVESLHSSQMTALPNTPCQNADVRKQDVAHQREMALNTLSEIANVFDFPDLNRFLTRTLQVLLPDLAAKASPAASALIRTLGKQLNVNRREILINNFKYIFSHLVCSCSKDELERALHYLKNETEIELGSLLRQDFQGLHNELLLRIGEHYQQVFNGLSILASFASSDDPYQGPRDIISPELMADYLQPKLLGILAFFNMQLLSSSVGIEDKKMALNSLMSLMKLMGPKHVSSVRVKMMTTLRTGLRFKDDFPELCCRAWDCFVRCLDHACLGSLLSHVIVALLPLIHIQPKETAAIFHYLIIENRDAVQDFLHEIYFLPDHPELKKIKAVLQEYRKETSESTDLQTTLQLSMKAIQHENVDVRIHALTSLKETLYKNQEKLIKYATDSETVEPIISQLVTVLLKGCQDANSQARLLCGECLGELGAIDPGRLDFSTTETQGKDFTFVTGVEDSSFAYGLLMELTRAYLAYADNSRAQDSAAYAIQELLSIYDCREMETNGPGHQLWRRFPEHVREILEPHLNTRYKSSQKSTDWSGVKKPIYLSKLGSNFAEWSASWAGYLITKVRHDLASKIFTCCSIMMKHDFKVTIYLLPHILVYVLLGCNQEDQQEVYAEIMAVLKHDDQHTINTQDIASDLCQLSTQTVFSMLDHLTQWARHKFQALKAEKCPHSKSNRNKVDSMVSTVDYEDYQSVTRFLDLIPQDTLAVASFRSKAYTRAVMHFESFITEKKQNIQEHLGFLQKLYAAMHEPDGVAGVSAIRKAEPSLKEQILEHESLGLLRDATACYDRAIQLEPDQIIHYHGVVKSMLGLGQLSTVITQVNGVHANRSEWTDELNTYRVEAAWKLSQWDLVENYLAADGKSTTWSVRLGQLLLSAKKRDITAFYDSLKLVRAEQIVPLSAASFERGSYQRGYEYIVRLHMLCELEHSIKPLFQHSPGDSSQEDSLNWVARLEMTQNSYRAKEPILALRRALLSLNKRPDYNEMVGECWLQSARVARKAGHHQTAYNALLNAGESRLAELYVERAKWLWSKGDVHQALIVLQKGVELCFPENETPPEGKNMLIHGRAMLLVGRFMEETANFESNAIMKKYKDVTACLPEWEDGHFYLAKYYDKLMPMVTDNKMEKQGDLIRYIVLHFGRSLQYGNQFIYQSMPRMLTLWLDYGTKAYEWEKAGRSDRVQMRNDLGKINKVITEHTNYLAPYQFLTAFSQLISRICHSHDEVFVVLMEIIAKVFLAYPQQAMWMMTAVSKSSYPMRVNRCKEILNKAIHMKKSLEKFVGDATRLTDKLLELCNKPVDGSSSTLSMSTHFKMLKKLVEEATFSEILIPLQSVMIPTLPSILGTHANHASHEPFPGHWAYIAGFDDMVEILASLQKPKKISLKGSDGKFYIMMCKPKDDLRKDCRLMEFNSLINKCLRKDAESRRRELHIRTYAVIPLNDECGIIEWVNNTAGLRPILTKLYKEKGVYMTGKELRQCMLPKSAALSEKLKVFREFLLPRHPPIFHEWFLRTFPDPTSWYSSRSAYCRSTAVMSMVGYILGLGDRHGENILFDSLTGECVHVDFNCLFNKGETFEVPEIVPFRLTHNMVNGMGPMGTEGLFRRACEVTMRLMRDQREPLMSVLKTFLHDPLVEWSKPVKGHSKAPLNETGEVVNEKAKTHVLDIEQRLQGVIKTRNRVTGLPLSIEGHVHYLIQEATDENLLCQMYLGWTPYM
# Sequence of ATR (Q8WXE1 whole entry partner): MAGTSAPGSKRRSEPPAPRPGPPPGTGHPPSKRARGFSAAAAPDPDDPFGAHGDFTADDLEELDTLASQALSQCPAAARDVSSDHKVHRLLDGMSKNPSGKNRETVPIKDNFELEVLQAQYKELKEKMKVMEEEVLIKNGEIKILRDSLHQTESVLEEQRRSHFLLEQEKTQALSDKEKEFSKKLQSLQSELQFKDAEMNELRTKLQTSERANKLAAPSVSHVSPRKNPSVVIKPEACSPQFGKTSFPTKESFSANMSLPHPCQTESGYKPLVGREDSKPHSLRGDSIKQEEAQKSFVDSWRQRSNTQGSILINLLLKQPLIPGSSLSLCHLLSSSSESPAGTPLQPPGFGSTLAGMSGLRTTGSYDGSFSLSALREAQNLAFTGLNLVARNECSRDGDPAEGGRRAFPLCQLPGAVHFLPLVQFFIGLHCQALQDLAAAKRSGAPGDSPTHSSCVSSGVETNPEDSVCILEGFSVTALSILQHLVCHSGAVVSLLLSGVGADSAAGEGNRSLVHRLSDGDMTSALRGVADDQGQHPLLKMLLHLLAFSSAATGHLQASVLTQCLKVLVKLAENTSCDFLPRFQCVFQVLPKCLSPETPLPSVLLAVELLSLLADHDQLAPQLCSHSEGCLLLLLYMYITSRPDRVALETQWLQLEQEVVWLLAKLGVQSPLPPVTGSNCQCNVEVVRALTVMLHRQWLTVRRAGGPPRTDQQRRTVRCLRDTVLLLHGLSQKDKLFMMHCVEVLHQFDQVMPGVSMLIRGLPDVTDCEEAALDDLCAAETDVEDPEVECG
# [7] = PK/PD/tolerability relationship (time above hyperglycemia threshold versus body weight loss); type: in vivo, nude mice and rats; conditions: mice and rats, threshold 20 μmol/L mice
# Excerpt: From this relationship, it is understood that the compound exposure levels should be sustained for no more than 35% of the dosing interval above the hyperglycemia cut-off to maintain body weight loss below 5% in mice and rats.
# Human plasma exposure = type: in vivo; conditions: po, human dose 300-350 mg/day p.o.
# Description: The corresponding total dose for qd in continuous daily schedule p.o. dose would be 14 mg/kg.
# Rat1-myr-p110α tumor [8] = test: Antitumor activity in the Rat1-myr-p110α tumor model, nude mice; type: in vivo; conditions: oral
# Description: (§4) Experiments were performed in female Hsd: Athymic Nude-nu CPB mice (Harlan Winkelmann, Germany). Animals were between 12 and 14 weeks of age at treatment start and housed under Optimized Hygienic Conditions (OHC) in Makrolon type III cages (max. 5 animals per cage) with free access to food and water. In addition, experiments were also performed in female nude Rowett rats Hsd: RH-Fox1mu (Harlan (The Netherlands). Animals were 6-9 weeks of age at time of application of the compound. Animals were housed under Optimized Hygienic Conditions in Makrolon type III cages (max. 2 animals per cage) with free access to food and water. They were allowed to adapt for at least 6 days before the experiment was started.
# (§5) Rat1-Myr-p110α cells were grown in Dulbecco's Modified Eagle Medium (DMEM) culture medium containing 4.5 g/l glucose supplemented with 10% heat-inactivated fetal calf serum (FCS), 2 mM L-glutamine, 1 mM sodium pyruvate and incubated at 37° C. in a 5% CO2 humidified atmosphere. Cells were harvested with trypsin-EDTA, re-suspended in culture medium (with additives) and counted with a Casy® system. Finally, cells are centrifuged, suspended in ice-cold Hanks' balanced salt solution (HBSS) at a concentration of 3×10^7 cells/ml. Cell culture reagents were purchased from BioConcept (Allschwil, Switzerland).
# as §1
# (§6) Fresh suspensions were prepared once every 4 days and stored at 4° C.
# (§7) Tumor volumes were measured with calipers and determined according to the formula: length×diameter^2×[…]/6. In addition to presenting changes of tumor volumes over the course of treatments, antitumor activity is expressed as T/C % (mean change of tumor volume of treated animals/mean change of tumor volume of control animals)×100. Regressions (%) were calculated according to the formula ((mean tumor volume at end of treatment−mean tumor volume at start of treatment)/mean tumor volume at start of treatment)×100. Body weights and tumor volumes were recorded two to three times a week.
# Vps34 = Vps34 (Homo sapiens, UniProt Q8NEB9); conditions: cited from earlier work
# Sequence of Vps34 (Q8NEB9 whole entry, species assumed): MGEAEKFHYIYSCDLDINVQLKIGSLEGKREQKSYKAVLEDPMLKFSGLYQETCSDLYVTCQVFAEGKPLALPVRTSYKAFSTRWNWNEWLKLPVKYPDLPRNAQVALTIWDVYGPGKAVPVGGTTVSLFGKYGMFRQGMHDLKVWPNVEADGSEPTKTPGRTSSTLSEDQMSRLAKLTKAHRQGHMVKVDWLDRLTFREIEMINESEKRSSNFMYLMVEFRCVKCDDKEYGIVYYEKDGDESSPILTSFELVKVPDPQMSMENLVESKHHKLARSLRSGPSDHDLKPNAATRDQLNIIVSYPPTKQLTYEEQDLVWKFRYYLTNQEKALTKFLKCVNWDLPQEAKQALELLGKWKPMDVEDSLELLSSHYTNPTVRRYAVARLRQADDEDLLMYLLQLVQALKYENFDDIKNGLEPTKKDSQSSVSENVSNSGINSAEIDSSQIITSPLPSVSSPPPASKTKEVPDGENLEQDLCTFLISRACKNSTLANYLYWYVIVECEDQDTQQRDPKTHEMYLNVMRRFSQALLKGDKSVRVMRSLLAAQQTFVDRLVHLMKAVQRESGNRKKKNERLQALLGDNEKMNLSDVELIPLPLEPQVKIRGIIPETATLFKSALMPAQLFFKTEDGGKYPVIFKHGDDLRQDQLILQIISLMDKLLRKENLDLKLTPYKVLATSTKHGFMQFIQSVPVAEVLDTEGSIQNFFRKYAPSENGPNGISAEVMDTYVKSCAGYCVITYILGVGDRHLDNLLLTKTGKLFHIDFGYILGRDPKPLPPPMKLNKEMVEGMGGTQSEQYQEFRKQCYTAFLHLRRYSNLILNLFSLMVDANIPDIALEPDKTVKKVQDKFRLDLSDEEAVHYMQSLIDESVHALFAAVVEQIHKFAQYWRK
# Plasma protein binding = type: in vitro ADME; conditions: mouse, read-out: plasma protein binding (PPB) (converted)
# [9] = test system: advanced solid malignancies carrying an alteration in the PIK3CA gene; conditions: patients treated at ≥270 mg/day, oral, continuous daily schedule; breast, colorectal, endometrial, cervical cancer (1 patient each); as of Feb. 15, 2013; cited from earlier work
# S473P-Akt [10] = test: In vitro cellular S473P-Akt inhibition; type: cell-based
# Rat1-myr-p110α tumor [11] = test: Antitumor activity in the Rat1-myr-p110α tumor model, nude rats; type: in vivo; conditions: nude rat, oral
# Description: as §4, §5, §1, §6, §7
smiles,measurement,setting,value
"Cc1nc(NC(=O)N2CCC[C@H]2C(N)=O)sc1-c1ccnc(C(C)(C)C(F)(F)F)c1 [Compound A, (S)-Pyrrolidine-1,2-dicarboxylic acid 2-amide 1-({4-methyl-5-[2-(2,2,2-trifluoro-1,1-dimethyl-ethyl)-pyridin-4-yl]-thiazol-2-yl}-amide)]",IC50,"S473P-Akt [1]; Mus musculus, read-out: in vivo IC50, tumor concentration giving 50% S473P-Akt inhibition",600 nM
same,IC80,"S473P-Akt [1]; Mus musculus, read-out: in vivo IC80 corrected for plasma protein binding",352 nM
same,IC80,"S473P-Akt [1]; Mus musculus, tumor concentration, versus controls, Rat1-myr-p110α tumors, read-out: in vivo IC80, tumor concentration giving 80% S473P-Akt inhibition",4000 nM
same,IC50,"S473P-Akt [1]; corrected for mouse PPB, read-out: in vivo IC50 corrected for plasma protein binding",53 nM
same,dose linearity of pharmacokinetics,[2],linear
same,insulin plasma levels,[3],increased proportionally
same,fraction of the dosing interval with 80% inhibition of Akt phosphorylation required to induce tumor stasis,Rat1-myr P110a tumors,at least 25 % of the dosing interval
same,insulin plasma levels,[4],increased proportionally
same,inhibitory activity against mTOR,mTOR,lacks inhibitory activity
same,decreased appetite,[5],34 % of patients
same,diarrhea,[5],35 % of patients
same,hyperglycemia,[5],49 % of patients
same,nausea,[5],43 % of patients
same,rash and hypersensitivity,[5],34 % of patients
same,inhibitory activity against DNA-PK,DNA-PK,lacks inhibitory activity
same,dose linearity of pharmacokinetics,[6],linear
same,inhibitory activity against ATR,ATR,lacks inhibitory activity
same,fraction of the dosing interval above the hyperglycemia cut-off that maintains body weight loss below 5%,[7],no more than 35 % of the dosing interval
same,AUC,Human plasma exposure,35000 ng·h/mL and 80 µM·h
same,Cmax,Human plasma exposure,3500 ng/mL and 8 µM
same,Efficacy T/C (observed),Rat1-myr-p110α tumor [8]; 6.25 mg 2qd,0.02
same,Efficacy T/C (observed),Rat1-myr-p110α tumor [8]; 6.25 mg qd,0.19
same,Efficacy Regression (observed),Rat1-myr-p110α tumor [8]; 12.5 mg 2qd,−0.55
same,Efficacy T/C (observed),Rat1-myr-p110α tumor [8]; 12.5 mg qd,0.09
same,Efficacy Regression (observed),Rat1-myr-p110α tumor [8]; 20 mg 2qd,−0.80
same,Efficacy Regression (observed),Rat1-myr-p110α tumor [8]; 25 mg qd,−0.53
same,Efficacy Regression (observed),Rat1-myr-p110α tumor [8]; 40 mg 2qd,−0.86
same,Efficacy Regression (observed),Rat1-myr-p110α tumor [8]; 50 mg qd,−0.65
same,inhibitory activity against Vps34,Vps34,lacks inhibitory activity
same,fraction unbound,Plasma protein binding,0.088
same,clinical response,[9],confirmed partial responses
same,IC50,S473P-Akt [10],74 nM
same,IC80,S473P-Akt [10],301 nM
same,Efficacy T/C (observed),Rat1-myr-p110α tumor [11]; 6.25 mg qd,0.22
same,Efficacy T/C (observed),Rat1-myr-p110α tumor [11]; 12.5 mg qd,0.05
same,Efficacy Regression (observed),Rat1-myr-p110α tumor [11]; 25 mg qd,−0.65
same,Efficacy Regression (observed),Rat1-myr-p110α tumor [11]; 50 mg qd,−0.80
